In ChEMBL document CHEMBL1201862, “PubChem BioAssay data set” (2004):
Calls of active or inactive are those of the source.

Assays:
[1] = inhibitors of intracellular T. cruzi replication, confirmation, NIH3T3 host cells, beta-gal luminescence (AID 2044); assay type: functional, cell-based;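 note: intracellular parasites grown in NIH/3T3 mouse fibroblasts as host cells; luminescent beta-galactosidase reporter signal from transgenic T. cruzi replicating inside host cells; inhibitors lower the luminescence signal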
[2] = cytotoxicity toward NIH3T3 fibroblasts, dose response, counter-screen, cell-based, ATP luminescence, mouse fibroblasts (AID 2010); assay type: functional;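 note: cells exposed to compound for about 90 hours before reading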
[3] = biological target: T1, DNA repair protein RAD52 homolog (Homo sapiens, UniProt P43351); assay type: functional, biochemical
T1 sequence (P43351 whole entry): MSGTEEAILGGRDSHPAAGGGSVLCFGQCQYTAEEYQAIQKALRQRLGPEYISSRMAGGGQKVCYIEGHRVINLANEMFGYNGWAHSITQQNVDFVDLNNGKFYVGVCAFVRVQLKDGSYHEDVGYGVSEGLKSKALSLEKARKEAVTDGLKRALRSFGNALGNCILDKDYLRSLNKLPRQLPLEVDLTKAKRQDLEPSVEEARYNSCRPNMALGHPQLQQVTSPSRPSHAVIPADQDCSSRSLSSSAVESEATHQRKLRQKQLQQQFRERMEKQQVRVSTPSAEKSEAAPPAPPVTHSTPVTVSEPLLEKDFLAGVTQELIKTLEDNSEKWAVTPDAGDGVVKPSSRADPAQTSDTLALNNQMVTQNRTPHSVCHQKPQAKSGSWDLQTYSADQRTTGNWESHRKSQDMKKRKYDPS

[4] = biological target: T2, DNA repair and recombination protein RAD54-like (Homo sapiens, UniProt Q92698); assay: inhibitors of human RAD54 branch migration, confirmation, biochemical, fluorescence, cherry-picked samples, dose series (AID 651657); assay type: functional
T2 sequence (Q92698 whole entry): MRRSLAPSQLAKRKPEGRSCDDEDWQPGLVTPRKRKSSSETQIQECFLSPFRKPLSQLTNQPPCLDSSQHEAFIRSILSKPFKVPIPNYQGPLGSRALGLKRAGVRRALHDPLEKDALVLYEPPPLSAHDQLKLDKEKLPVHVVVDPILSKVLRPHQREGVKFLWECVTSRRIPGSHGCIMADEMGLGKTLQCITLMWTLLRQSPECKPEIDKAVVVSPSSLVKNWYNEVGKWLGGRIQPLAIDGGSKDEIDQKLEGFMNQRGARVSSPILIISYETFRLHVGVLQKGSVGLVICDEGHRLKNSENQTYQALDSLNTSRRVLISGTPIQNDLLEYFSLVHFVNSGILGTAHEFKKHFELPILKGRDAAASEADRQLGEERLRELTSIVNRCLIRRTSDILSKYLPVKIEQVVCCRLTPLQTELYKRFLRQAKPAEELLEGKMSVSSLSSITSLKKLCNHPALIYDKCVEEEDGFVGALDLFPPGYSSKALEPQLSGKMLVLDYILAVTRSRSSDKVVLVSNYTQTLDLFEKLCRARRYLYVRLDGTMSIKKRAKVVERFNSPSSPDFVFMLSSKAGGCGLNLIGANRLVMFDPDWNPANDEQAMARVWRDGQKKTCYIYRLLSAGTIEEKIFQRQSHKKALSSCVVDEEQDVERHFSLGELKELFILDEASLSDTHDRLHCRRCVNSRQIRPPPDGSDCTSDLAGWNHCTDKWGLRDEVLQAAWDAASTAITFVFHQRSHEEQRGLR

[5] = biological target: T3, Carboxy-terminal domain RNA polymerase II polypeptide A small phosphatase 1 (Homo sapiens, UniProt Q9GZU7); assay: inhibitors of CTDSP1, concentration-response testing, biochemical assay, absorbance-based, actives from ultra-high-throughput screening (AID 540297); assay type: functional
T3 sequence (Q9GZU7 whole entry): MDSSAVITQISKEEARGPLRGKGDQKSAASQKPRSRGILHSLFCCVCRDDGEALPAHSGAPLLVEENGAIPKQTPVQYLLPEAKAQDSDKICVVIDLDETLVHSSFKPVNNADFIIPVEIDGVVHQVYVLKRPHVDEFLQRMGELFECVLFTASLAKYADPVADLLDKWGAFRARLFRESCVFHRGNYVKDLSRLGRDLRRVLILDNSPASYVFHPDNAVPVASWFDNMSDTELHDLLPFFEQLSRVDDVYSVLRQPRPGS

[6] = biological target: Albumin (Bos taurus, UniProt P02769); assay: Counterscreen for inhibitors of T-cell receptor (TCR)-CD3 interaction: Fluorescence-based biochemical high throughput dose response assay to identify inhibitors of T-cell receptor (TCR)-CD3 interaction using a TAMRA-labeled BSA probe.; assay type: functional
[7] = biological target: T4, Caspase-6 (Homo sapiens, UniProt P55212); assay: human caspase-6 inhibitors, dose response, biochemical, VEID-R110 fluorescence, cherry-pick (AID 720632)
T4 sequence (P55212 whole entry): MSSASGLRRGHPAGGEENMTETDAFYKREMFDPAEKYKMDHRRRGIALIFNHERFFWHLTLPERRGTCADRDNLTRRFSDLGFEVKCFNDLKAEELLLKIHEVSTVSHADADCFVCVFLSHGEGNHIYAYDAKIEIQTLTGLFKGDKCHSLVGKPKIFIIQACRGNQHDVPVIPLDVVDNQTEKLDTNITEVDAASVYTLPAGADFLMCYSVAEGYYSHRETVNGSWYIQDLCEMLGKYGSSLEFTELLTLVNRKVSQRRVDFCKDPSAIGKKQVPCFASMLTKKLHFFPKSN

[8] = biological target: Heat shock protein HSP 90-alpha (Homo sapiens, UniProt P07900); assay type: functional, organism-based
[9] = inhibitors of Vif binding to APOBEC3G peptide, primary screen, biochemical, TR-FRET, GST-Vif 1-94, biotin-A3G peptide, dose response retest (AID 1117319); assay type: functional;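 note: TR-FRET signal of purified GST-Vif binding a biotinylated A3G peptide; inhibitors lower the FRET signal by blocking Vif and A3G binding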
[10] = control 3'UTR Renilla luciferase suppression, dose response, counter-screen for Shn3 inhibitor project, cell-based, Clone20-Shn3RL, cherry-picked (AID 624133); assay type: functional
[11] = tested on: INS1; assay: beta cell apoptosis inhibitors, cytokine rescue, dose response, luminescence, retest (AID 449756); assay type: functional, cell-based; conditions: Rattus norvegicus;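 note: cell death triggered by IL-1 beta plus TNF-alpha plus IFN-gamma mixture; protective hits raise ATP signal compared with cytokine alone wells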
[12] = biological target: Paired box protein Pax-8 (Homo sapiens, UniProt Q06710); assay: inhibitors of PAX8-driven TPO luciferase reporter, dose response, RMG-I cells, cherry-pick (AID 687027); assay type: functional, cell-based;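 note: luciferase reporter driven by Pax8 target thyroperoxidase promoter measured by SteadyGlo luminescence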
[13] = Shn3 3'UTR reporter inhibitors, dose response, cell-based, Clone20 osteoblasts, firefly luciferase, cherry-picked (AID 624132); assay type: functional;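 note: firefly luciferase luminescence from reporter carrying the Shn3 3'UTR in osteoblasts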
[14] = biological target: T5, Protein RecA (Mycobacterium tuberculosis, UniProt P9WHJ3); assay: Fluorescence Cell-Free Homogeneous Dose Retest to Identify Inhibitors of RecA-Intein Splicing Activity. [Related pubchem assays (depositor defined):AID2097, AID2223, AID489010, AID492950]; assay type: functional
T5 sequence (P9WHJ3 whole entry): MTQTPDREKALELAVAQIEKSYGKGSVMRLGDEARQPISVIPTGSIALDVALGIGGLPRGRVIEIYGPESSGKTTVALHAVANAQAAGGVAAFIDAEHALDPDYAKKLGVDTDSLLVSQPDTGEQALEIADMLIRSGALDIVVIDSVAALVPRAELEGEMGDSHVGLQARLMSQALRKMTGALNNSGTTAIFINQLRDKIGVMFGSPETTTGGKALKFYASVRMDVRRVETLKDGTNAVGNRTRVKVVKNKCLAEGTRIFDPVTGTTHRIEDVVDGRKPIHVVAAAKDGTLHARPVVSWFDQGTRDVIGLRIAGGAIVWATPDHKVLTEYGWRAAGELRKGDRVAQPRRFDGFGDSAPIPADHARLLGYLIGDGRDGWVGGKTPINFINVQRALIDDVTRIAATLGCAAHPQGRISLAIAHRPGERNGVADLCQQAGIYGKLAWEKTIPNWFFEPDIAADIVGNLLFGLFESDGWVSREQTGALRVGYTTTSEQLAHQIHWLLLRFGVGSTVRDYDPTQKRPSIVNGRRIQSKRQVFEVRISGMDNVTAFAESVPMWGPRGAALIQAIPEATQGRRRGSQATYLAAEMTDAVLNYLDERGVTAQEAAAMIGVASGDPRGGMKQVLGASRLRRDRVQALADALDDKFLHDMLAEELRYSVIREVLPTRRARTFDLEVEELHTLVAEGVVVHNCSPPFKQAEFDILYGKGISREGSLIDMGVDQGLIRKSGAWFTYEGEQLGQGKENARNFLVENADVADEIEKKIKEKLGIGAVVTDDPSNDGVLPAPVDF

[15] = biological target: T6, Replicative DNA helicase DnaB (Mycobacterium tuberculosis, UniProt P9WMR3); assay: DnaB intein splicing inhibitors, dose response, biochemical, cell-free fluorescence (AID 449749); assay type: functional
T6 sequence (P9WMR3 whole entry): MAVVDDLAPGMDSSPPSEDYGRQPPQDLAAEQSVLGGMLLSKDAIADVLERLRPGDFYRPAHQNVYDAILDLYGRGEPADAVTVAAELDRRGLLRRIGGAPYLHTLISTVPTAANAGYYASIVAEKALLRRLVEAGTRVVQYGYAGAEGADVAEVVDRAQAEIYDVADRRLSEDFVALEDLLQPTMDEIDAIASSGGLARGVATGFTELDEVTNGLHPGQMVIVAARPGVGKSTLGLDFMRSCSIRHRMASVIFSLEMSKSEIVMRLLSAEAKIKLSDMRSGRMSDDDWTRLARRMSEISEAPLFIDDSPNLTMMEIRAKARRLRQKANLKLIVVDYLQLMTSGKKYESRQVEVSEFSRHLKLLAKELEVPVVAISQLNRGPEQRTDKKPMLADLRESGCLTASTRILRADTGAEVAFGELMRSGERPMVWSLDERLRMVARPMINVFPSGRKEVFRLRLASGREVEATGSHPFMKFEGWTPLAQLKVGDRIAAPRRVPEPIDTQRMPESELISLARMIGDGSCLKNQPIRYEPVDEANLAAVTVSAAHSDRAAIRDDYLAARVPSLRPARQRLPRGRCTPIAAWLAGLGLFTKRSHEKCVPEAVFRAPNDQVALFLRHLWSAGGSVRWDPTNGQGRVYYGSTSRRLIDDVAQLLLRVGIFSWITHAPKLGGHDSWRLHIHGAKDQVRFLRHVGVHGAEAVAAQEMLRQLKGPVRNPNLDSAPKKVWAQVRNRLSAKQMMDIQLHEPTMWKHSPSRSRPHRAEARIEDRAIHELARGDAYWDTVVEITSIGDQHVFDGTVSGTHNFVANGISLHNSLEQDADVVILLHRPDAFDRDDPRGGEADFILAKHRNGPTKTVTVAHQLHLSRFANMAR

[16] = biological target: Photoreceptor-specific nuclear receptor (Homo sapiens, UniProt Q9Y5X4); assay type: functional, cell-based;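 note: CHO-S cells with Gal4-NCOR and VP16-NR2E3 two-hybrid luciferase reporter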
[17] = HepG2 cell cytotoxicity, dose response, cytotoxicity control for Shn3 inhibitor project, CellTiter-Glo, cherry-picked (AID 624134); assay type: functional, cell-based
[18] = biological target: T7, Small ubiquitin-related modifier 1 (Homo sapiens, UniProt P63165); assay: inhibitors of SUMO1 peptide binding, dose response, biochemical, fluorescence polarization, uHTS hits (AID 624382); assay type: functional; conditions: read-out: IC50_Mean
[19] = biological target: T7, Small ubiquitin-related modifier 1; assay: inhibitors of SUMO1 partner interactions, dose response, biochemical, FRET (AID 624383); assay type: functional; conditions: read-out: IC50_Mean
[20] = tested on: HEK293; assay: cells; assay type: functional, cell-based; conditions: Homo sapiens
[21] = biological target: T8, Nuclear receptor subfamily 0 group B member 1 (Homo sapiens, UniProt P51843); assay: Luminescence-based cell-based high throughput dose response assay for inhibitors of the orphan nuclear receptor subfamily 0, group B, member 1 (DAX1; NR0B1). [Related pubchem assays (depositor defined):AID504766, AID504790]; assay type: functional
T8 sequence (P51843 whole entry): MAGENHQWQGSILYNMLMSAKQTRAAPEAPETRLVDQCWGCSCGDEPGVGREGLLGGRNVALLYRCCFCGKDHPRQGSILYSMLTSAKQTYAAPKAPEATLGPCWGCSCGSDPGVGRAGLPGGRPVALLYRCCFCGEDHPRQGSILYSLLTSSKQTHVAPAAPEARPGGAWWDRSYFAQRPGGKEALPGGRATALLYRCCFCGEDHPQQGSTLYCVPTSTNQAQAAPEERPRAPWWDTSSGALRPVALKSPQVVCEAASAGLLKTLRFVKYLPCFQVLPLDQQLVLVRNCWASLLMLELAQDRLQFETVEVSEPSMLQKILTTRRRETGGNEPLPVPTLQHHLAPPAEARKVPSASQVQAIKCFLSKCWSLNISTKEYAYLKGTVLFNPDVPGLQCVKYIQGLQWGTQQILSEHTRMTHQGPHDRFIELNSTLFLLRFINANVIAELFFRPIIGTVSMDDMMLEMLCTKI

T7 sequence (P63165 whole entry): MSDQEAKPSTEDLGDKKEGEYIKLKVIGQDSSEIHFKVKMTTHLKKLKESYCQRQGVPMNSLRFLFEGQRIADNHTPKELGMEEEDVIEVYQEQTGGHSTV
Paired box protein Pax-8, sequence (Q06710 whole entry): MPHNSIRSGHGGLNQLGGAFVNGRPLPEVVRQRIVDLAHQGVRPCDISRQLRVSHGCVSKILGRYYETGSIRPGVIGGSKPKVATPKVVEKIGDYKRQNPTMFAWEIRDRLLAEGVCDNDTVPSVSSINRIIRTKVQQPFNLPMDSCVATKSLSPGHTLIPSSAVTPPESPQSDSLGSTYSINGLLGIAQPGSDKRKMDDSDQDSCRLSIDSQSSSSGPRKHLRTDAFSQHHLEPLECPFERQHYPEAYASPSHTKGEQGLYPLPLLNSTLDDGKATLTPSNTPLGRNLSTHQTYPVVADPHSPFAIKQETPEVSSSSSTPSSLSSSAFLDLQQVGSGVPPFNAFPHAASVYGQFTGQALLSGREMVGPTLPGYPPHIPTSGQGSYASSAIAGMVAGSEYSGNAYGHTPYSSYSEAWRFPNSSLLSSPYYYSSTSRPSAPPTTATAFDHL
Photoreceptor-specific nuclear receptor, sequence (Q9Y5X4 whole entry, the tested form may be a part): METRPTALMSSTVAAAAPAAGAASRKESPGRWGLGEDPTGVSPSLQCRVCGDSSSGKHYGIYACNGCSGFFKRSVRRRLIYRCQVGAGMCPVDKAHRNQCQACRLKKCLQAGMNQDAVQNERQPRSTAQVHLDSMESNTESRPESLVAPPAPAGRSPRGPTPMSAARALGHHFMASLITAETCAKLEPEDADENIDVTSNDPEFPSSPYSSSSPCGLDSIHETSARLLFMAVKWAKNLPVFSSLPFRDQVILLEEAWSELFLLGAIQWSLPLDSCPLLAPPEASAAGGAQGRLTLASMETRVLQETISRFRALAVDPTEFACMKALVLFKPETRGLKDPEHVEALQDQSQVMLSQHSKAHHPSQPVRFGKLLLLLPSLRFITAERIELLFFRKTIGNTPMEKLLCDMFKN
Albumin, sequence (P02769 whole entry): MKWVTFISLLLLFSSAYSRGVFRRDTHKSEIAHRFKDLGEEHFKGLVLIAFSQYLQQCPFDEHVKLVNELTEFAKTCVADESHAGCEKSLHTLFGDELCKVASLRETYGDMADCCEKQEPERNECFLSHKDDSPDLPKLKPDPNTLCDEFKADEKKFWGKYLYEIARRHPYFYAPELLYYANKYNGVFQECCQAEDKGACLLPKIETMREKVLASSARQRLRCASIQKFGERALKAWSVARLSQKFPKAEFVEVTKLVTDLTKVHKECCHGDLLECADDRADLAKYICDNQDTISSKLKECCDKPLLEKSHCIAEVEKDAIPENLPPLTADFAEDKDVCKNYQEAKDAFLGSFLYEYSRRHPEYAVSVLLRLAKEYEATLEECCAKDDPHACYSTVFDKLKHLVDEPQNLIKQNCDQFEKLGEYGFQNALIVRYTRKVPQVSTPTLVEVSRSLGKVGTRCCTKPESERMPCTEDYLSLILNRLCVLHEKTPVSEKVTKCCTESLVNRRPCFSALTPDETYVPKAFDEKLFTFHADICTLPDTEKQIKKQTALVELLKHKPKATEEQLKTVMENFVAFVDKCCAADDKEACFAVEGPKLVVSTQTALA

In the case of `Cc1ccc2nc3c(c(Nc4ccc(O)cc4)c2c1)CCC3`, the EC50 [1] is reported as 1.06 µM (active), the EC50 [2] is reported as 8.88 µM (active) and the AC50 [3] is reported as 20.5 µM (active). The AC50 [4] was 39 µM (active).

For `O=C(O)c1cnc2c([N+](=O)[O-])cccc2c1O`, the IC50 [5] was 5.65 µM (active), the IC50 [6] was > 94 µM (inactive) and the AC50 [7] was 5.77 µM (active).

For `Cc1cc(N2CCN(C)CC2)nc2ccc(NC(S)=NCCCN3CCN(C)CC3)cc12`, the AC50 [3] was 3.59 µM (active) and the AC50 [4] was 24.6 µM (active).

With `COc1ccc(NC(=O)C2CCCN2S(=O)(=O)c2cccc3cccnc23)c(OC)c1` (stereo not given) the AC50 [8] was 1.49 µM (active) and the IC50 [9] was > 100 µM (active).

With `CC(C)c1ccc(/C=C(\c2nc3ccccc3[nH]2)S(=O)(=O)c2ccccc2)cc1` the AC50 [10] was 10.5 µM (active), the AC50 [11] was 4.38 µM (active) and the AC50 [12] was 5.15 µM (active). For the same compound, the AC50 [13] was 4.01 µM (active), the EC50 [14] was 2.01 µM (active) and the AC50 [15] was 2.09 µM (active). For the same compound, the IC50 [16] was 2.72 µM (active) and the AC50 [17] was 18 µM (active).

With `Cc1cc(-c2cc(NC=O)c3ncc(-c4cccc(C(=O)NCCN(C)C)c4)n3c2)cc(C)c1O` the IC50 [18] was > 66.6 µM (inactive), the AC50 [3] was 1.54 µM (active) and the AC50 [4] was 8.33 µM (active). For the same compound, the IC50 [19] was 20.2 µM (inactive).

In the case of `CCOc1ccc(-c2nnc(-c3ccco3)o2)cc1OCC`, the IC50 [20] is reported as > 67.5 µM (inactive) and the IC50 [21] is reported as > 67.5 µM (inactive).
